The target of assay [1] is T1, human Gcg receptor (Homo sapiens, UniProt P47871).
T1 construct: expressed in transfected cells; crude membranes
The assay can be described thus: [125I]-Glucagon binding (SPA), human Gcg receptor. The conditions noted are these: read-out: hGLcgR Ki, nM (SEM, n). A digest of the protocol:
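Scintillation counts are taken after membranes and WGA beads incubate and settle for 12 hours at room temperature. Buffer is 25 mM HEPES, pH 7.4, with CaCl2, MgCl2, bacitracin and Tween-20. Ki values, from four-parameter IC50 fits, are geometric means over independent days.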

For assay [2], the target named is human GLP-1 receptor (GLP-1R) (Homo sapiens, UniProt P43220). As to the kind of experiment: cAMP pharmacological functional assay in presence of casein, hGLP-1R. It is filed as cell-based. The conditions noted are these: HEK293 cells expressing hGLP-1R, 0.1% Casein, geometric mean; read-out: hGLP1R cAMP Rel EC50 nM (SEM, n).
The target of assay [3] is T2, gastric inhibitory peptide receptor (GIPR) (Homo sapiens, UniProt P48546).
T2 sequence (P48546 22-466): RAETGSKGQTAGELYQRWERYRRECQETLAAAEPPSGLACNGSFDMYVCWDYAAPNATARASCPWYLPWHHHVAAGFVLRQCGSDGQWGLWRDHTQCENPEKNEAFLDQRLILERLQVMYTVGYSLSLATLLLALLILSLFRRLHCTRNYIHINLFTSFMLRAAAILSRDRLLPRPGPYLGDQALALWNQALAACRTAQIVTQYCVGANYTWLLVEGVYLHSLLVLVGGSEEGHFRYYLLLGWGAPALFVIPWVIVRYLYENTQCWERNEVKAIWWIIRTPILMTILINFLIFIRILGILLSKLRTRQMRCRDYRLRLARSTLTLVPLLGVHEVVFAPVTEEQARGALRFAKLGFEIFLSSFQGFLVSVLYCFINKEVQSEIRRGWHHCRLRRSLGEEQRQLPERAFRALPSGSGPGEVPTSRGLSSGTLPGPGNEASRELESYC
As to the kind of experiment: cAMP pharmacological functional assay in presence of casein, hGIPR. It is filed as cell-based. The conditions noted are these: HEK293 cells expressing hGIPR, 0.1% Casein, geometric mean; read-out: hGIPR cAMP Rel EC50 nM (SEM, n).

The target of assay [4] is T3, human GIP receptor (Homo sapiens, UniProt P48546).
T3 construct: expressed in transfected cells; crude membranes
T3 sequence (P48546 22-466): T2 sequence (P48546 22-466)
The assay can be described thus: [125I]-GIP binding (SPA), human GIP receptor. The conditions noted are these: read-out: hGIPR Ki, nM (SEM, n).

In assay [5] the target is human GLP-1R (Homo sapiens, UniProt P43220). As to the kind of experiment: [125I]-GLP-1 binding (SPA), human GLP-1 receptor. More on the design: expressed in transfected cells; crude membranes. Conditions: read-out: hGLP1R Ki, (nM) (SEM, n). A digest of the protocol:
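Assay buffer: HEPES 25 mM, pH 7.4, CaCl2 2.5 mM, MgCl2 1 mM, with EDTA-free protease inhibitors. Receptor came from crude cell membranes prepared by homogenization and centrifugation at 4° C. IC50s came from four-parameter fits (maximum, minimum, IC50, Hill slope) and were expressed as Ki geometric means with SEM.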

What is called Ki is a measure of affinity in units of concentration, obtained from inhibition or displacement. In general, EC50 refers to the midpoint of the concentration-response curve.

Numbered stars: 1 amine (or outer) side, 2 acyl side, 3 side chain; on linkers, the order of the positions; unused ones are H or OH. Square brackets hold non-standard residues; d marks the D form. Side chains are listed from the residue outwards. Peptide text beside a SMILES is read from it. * marks the point of attachment. C20 diacid = O=C(O)CCCCCCCCCCCCCCCCCCC(=O)*; C18 diacid = O=C(O)CCCCCCCCCCCCCCCCC(=O)*; αMePhe(2-F) = C[C@](N)(Cc1ccccc1F)C(=O)O; γGlu = O=C(O)[C@H](CCC(=O)[*:2])N[*:1]; αMeY = C[C@](N)(Cc1ccc(O)cc1)C(=O)O; αMeL = CC(C)C[C@](C)(N)C(=O)O; Orn = NCCC[C@H](N)C(=O)O; AEEA = NCCOCCOCC(=O)O; Aib = CC(C)(N)C(=O)O

Sequence of human GLP-1R (P43220 24-463): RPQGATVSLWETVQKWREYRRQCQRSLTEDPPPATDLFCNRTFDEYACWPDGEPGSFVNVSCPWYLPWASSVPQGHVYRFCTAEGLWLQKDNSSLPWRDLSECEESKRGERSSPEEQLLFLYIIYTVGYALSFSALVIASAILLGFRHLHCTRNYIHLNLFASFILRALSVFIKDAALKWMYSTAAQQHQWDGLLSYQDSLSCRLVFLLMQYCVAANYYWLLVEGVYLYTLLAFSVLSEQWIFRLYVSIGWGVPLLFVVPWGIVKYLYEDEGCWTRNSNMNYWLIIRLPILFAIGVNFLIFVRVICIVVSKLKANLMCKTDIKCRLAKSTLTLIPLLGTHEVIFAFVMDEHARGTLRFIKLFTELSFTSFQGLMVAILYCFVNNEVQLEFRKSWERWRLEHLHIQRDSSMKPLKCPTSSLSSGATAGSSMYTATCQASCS
Sequence of human GLP-1 receptor (GLP-1R) (P43220 24-463): as above
T1 sequence (P47871 26-477): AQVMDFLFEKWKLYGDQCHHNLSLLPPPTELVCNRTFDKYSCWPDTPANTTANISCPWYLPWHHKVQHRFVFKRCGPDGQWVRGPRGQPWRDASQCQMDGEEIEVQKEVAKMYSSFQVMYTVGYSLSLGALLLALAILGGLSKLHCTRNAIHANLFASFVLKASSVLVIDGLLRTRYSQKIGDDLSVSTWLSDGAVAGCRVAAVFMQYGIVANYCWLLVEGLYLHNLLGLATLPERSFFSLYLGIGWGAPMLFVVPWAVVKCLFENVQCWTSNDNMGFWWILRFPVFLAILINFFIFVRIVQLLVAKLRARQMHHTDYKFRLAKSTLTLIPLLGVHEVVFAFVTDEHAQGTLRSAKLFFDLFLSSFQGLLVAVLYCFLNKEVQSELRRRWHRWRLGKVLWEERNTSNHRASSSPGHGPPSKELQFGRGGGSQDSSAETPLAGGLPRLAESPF

On to `CC[C@H](C)[C@H](NC(=O)[C@H](CC(C)C)NC(=O)[C@H](Cc1ccc(O)cc1)NC(=O)[C@H](CCC(=O)O)NC(=O)[C@@H](NC(=O)[C@H](Cc1ccccc1)NC(=O)[C@H](C)NC(=O)C(C)(C)NC(=O)[C@H](CCC(N)=O)NC(=O)[C@H](C)NC(=O)[C@H](CCCCNC(=O)COCCOCCNC(=O)COCCOCCNC(=O)CC[C@H](NC(=O)CCCCCCCCCCCCCCCCCCC(=O)O)C(=O)O)NC(=O)[C@@H](NC(=O)[C@H](CC(=O)O)NC(=O)[C@H](CC(C)C)NC(=O)[C@](C)(CC(C)C)NC(=O)[C@@H](NC(=O)[C@H](CO)NC(=O)[C@H](Cc1ccc(O)cc1)NC(=O)[C@H](CC(=O)O)NC(=O)[C@H](CO)NC(=O)[C@@H](NC(=O)[C@H](Cc1ccccc1)NC(=O)[C@@H](NC(=O)CNC(=O)[C@H](CCC(=O)O)NC(=O)C(C)(C)NC(=O)[C@@H](N)Cc1ccc(O)cc1)[C@@H](C)O)[C@@H](C)O)[C@@H](C)CC)[C@@H](C)O)[C@@H](C)CC)C(=O)N[C@@H](CCC(=O)O)C(=O)NCC(=O)NCC(N)=O` [Example 65] (H-Y[Aib]EGTFTSDYSI[αMeL]LDTK([AEEA-AEEA-γGlu-C20 diacid])AQ[Aib]AFIEYLIEGG-NH2; N-terminus assumed), for which the Ki in assay [1] is 194 nM; in assay [4], 0.0643 nM; in assay [5] it was 4.53 nM. The figures for the EC50 in assay [2] and in assay [3] were 0.289 nM and 0.143 nM, respectively.

With `CC[C@H](C)[C@H](NC(=O)[C@H](Cc1ccccc1)NC(=O)[C@H](C)NC(=O)C(C)(C)NC(=O)[C@H](CCC(N)=O)NC(=O)[C@H](C)NC(=O)[C@H](CCCCNC(=O)COCCOCCNC(=O)COCCOCCNC(=O)CC[C@H](NC(=O)CCCCCCCCCCCCCCCCCCC(=O)O)C(=O)O)NC(=O)[C@H](CCC(=O)O)NC(=O)[C@H](CC(=O)O)NC(=O)[C@H](CC(C)C)NC(=O)[C@](C)(CC(C)C)NC(=O)[C@@H](NC(=O)[C@H](CO)NC(=O)[C@H](Cc1ccc(O)cc1)NC(=O)[C@H](CC(=O)O)NC(=O)[C@H](CO)NC(=O)[C@@H](NC(=O)[C@H](Cc1ccccc1)NC(=O)[C@@H](NC(=O)CNC(=O)[C@H](CCC(=O)O)NC(=O)C(C)(C)NC(=O)[C@@H](N)Cc1ccc(O)cc1)[C@@H](C)O)[C@@H](C)O)[C@@H](C)CC)C(=O)N[C@@H](CCC(=O)O)C(=O)N[C@@H](Cc1ccc(O)cc1)C(=O)N[C@@H](CC(C)C)C(=O)N[C@@H](CC(C)C)C(=O)N[C@@H](CCC(=O)O)C(=O)NCC(=O)NCC(=O)N1CCC[C@H]1C(=O)N[C@@H](CO)C(=O)N[C@@H](CO)C(=O)NCC(=O)N[C@@H](C)C(=O)N1CCC[C@H]1C(=O)N1CCC[C@H]1C(=O)N1CCC[C@H]1C(=O)N[C@@H](CO)C(N)=O` [Example 66] (H-Y[Aib]EGTFTSDYSI[αMeL]LDEK([AEEA-AEEA-γGlu-C20 diacid])AQ[Aib]AFIEYLLEGGPSSGAPPPS-NH2), the Ki in assay [1] was determined as 93.7 nM; in assay [4] it was 0.106 nM; in assay [5] it was 7.53 nM. Moreover, the EC50 amounted to 0.285 nM in assay [2] and 0.0743 nM in assay [3].

Turning to `CC[C@H](C)[C@H](NC(=O)[C@H](CC(C)C)NC(=O)[C@H](Cc1ccc(O)cc1)NC(=O)[C@H](CCC(=O)O)NC(=O)[C@@H](NC(=O)[C@H](Cc1ccccc1)NC(=O)[C@H](CCC(=O)O)NC(=O)C(C)(C)NC(=O)[C@H](CCC(N)=O)NC(=O)[C@H](C)NC(=O)[C@H](CCCCNC(=O)COCCOCCNC(=O)COCCOCCNC(=O)CC[C@H](NC(=O)CCCCCCCCCCCCCCCCC(=O)O)C(=O)O)NC(=O)[C@H](CCCCN)NC(=O)[C@H](CC(=O)O)NC(=O)[C@H](CC(C)C)NC(=O)[C@H](CC(C)C)NC(=O)[C@@H](NC(=O)[C@H](CO)NC(=O)[C@H](Cc1ccc(O)cc1)NC(=O)[C@H](CC(=O)O)NC(=O)[C@H](CO)NC(=O)[C@@H](NC(=O)[C@H](Cc1ccccc1)NC(=O)[C@@H](NC(=O)CNC(=O)[C@H](CCC(=O)O)NC(=O)C(C)(C)NC(=O)[C@@H](N)Cc1ccc(O)cc1)[C@@H](C)O)[C@@H](C)O)[C@@H](C)CC)[C@@H](C)CC)C(=O)N[C@@H](CCC(=O)O)C(=O)NCC(=O)NCC(=O)N1CCC[C@H]1C(=O)N[C@@H](CO)C(=O)N[C@@H](CO)C(=O)NCC(N)=O` [Example 270] (H-Y[Aib]EGTFTSDYSILLDKK([AEEA-AEEA-γGlu-C18 diacid])AQ[Aib]EFIEYLIEGGPSSG-NH2; N-terminus assumed), the figures for the Ki in assay [1], in assay [4] and in assay [5] were more than 1190 nM, 0.117 nM and 8.27 nM, respectively. For the same compound, the figures for the EC50 in assay [2] and in assay [3] were 0.128 nM and 0.328 nM, respectively.

Turning to `CC[C@H](C)[C@H](NC(=O)[C@H](CC(C)C)NC(=O)[C@](C)(Cc1ccc(O)cc1)NC(=O)[C@@H](CCC(=O)O)NC(=O)[C@@H](NC(=O)[C@H](Cc1ccccc1)NC(=O)[C@H](CCC(=O)O)NC(=O)C(C)(C)NC(=O)[C@H](CCC(N)=O)NC(=O)[C@H](C)NC(=O)[C@H](CCCCNC(=O)COCCOCCNC(=O)COCCOCCNC(=O)CC[C@H](NC(=O)CCCCCCCCCCCCCCCCC(=O)O)C(=O)O)NC(=O)[C@H](CCCN)NC(=O)[C@H](CC(=O)O)NC(=O)[C@H](CC(C)C)NC(=O)[C@](C)(CC(C)C)NC(=O)[C@@H](NC(=O)[C@H](CO)NC(=O)[C@H](Cc1ccc(O)cc1)NC(=O)[C@H](CC(=O)O)NC(=O)[C@H](CO)NC(=O)[C@@H](NC(=O)[C@](C)(Cc1ccccc1F)NC(=O)[C@@H](NC(=O)CNC(=O)[C@H](CCC(=O)O)NC(=O)C(C)(C)NC(=O)[C@@H](N)Cc1ccc(O)cc1)[C@@H](C)O)[C@@H](C)O)[C@@H](C)CC)[C@@H](C)CC)C(=O)N[C@@H](CCC(=O)O)C(=O)NCC(=O)NCC(=O)N1CCC[C@H]1C(=O)N[C@@H](CO)C(=O)N[C@@H](CO)C(=O)NCC(=O)N[C@@H](C)C(=O)N1CCC[C@H]1C(=O)N1CCC[C@H]1C(=O)N1CCC[C@H]1C(=O)N[C@@H](CO)C(N)=O` [Example 236] (H-Y[Aib]EGT[αMePhe(2-F)]TSDYSI[αMeL]LD[Orn]K([AEEA-AEEA-γGlu-C18 diacid])AQ[Aib]EFI[dE][αMeY]LIEGGPSSGAPPPS-NH2), the values for the Ki in assay [1], in assay [4] and in assay [5] were 200 nM, 0.0425 nM and 1.05 nM, respectively. Besides, the EC50 in assay [2] was 0.0231 nM; in assay [3], 0.0249 nM.

In the case of `CC[C@H](C)[C@H](NC(=O)[C@H](CC(C)C)NC(=O)[C@H](Cc1ccc(O)cc1)NC(=O)[C@H](CCC(=O)O)NC(=O)[C@@H](NC(=O)[C@H](Cc1ccccc1)NC(=O)[C@H](C)NC(=O)C(C)(C)NC(=O)[C@H](CCC(N)=O)NC(=O)[C@H](C)NC(=O)[C@H](CCCCNC(=O)COCCOCCNC(=O)COCCOCCNC(=O)CC[C@H](NC(=O)CCCCCCCCCCCCCCCCCCC(=O)O)C(=O)O)NC(=O)[C@H](CCCCN)NC(=O)[C@H](CC(=O)O)NC(=O)[C@H](CC(C)C)NC(=O)[C@H](CC(C)C)NC(=O)[C@@H](NC(=O)[C@H](CO)NC(=O)[C@H](Cc1ccc(O)cc1)NC(=O)[C@H](CC(=O)O)NC(=O)[C@H](CO)NC(=O)[C@@H](NC(=O)[C@H](Cc1ccccc1)NC(=O)[C@@H](NC(=O)CNC(=O)CC[C@H](NC(=O)C(C)(C)NC(=O)[C@@H](N)Cc1ccc(O)cc1)C(=O)O)[C@@H](C)O)[C@@H](C)O)[C@@H](C)CC)[C@@H](C)CC)C(=O)N[C@@H](CCC(=O)O)C(=O)NCC(=O)NCC(=O)N1CCC[C@H]1C(=O)N[C@@H](CO)C(=O)N[C@@H](CO)C(=O)NCC(=O)N[C@@H](C)C(=O)N1CCC[C@H]1C(=O)N1CCC[C@H]1C(=O)N1CCC[C@H]1C(=O)N[C@@H](CO)C(N)=O` [Example 91], the figures for the inhibition constant (Ki) in assay [1], in assay [4] and in assay [5] were 540 nM, 1.8 nM and 5.23 nM, respectively. For the same compound, the EC50 was more than 5000 nM in assay [2] and 19.2 nM in assay [3].

The values above are taken from patent US12252524B2, “GIP/GLP1 co-agonist compounds” (Eli Lilly and Company, priority 2018, dated 2025).
